Measured values published in US20240262819A1, “NOVEL COMPOUNDS HAVING INHIBITORY ACTIVITY AGAINST GLUCOSYLCERAMIDE SYNTHASE OR PHARMACEUTICALLY ACCEPTABLE SALT THEREOF, PROCESSES FOR PREPARING THE SAME, AND PHARMACEUTICAL COMPOSITIONS COMPRISING THE SAME” (YUHAN CORPORATION, priority 2021, published 2024).
pIC50: −log10 of the molar value. Where two headings read alike, the source gives them in different places.

How the values were obtained:
[1] = biological target: glucosylceramide synthase (GCS) (Homo sapiens (Human), UniProt Q16739); test: Evaluation of inhibitory activities against GCS (A549 cell lysate, NBD C6-ceramide, HPLC); assay type: biochemical
Summary of the method: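 GCS activity in A549 cell lysate (50 mM HEPES, pH 7.3) with NBD C6-ceramide, reacted 90 min at 37 °C. Lipids were chloroform/methanol-extracted and separated by normal-phase HPLC with fluorescence detection (ex 470/em 530 nm). GlcCer fraction of peak area was normalized between DMSO and ibiglustat, and IC50 obtained by curve fitting.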

[2] = system: GM1 production in Jurkat cells; test: cells; assay type: cell-based
[3] = Evaluation of blood-brain barrier (BBB) permeability through oral administration; assay type: in vivo, mice; conditions: mice, oral, dose 30 mg/kg, 4 hr; for Kp at 4 h / concentration at 4 h: mouse, in vivo; for Kp at 4 h: read-out: Mean brain-plasma drug ratio at 4 hr
Summary of the method: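 Mice dosed orally at 10 or 30 mg/10 ml/kg, suspended in 0.5% methyl cellulose with 0.2% Tween 80. Plasma and forebrain homogenate taken 4 hours post-dose, drug measured by LC-MS/MS; brain/plasma ratio calculated from tissue concentrations.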

[4] = read-out: Mean drug concentrations in brain tissue at 4 hr
[5] = read-out: Mean drug concentrations in plasma at 4 hr
[6] = % GCS activity, A549 cell lysate, 37° C. for 90 minutes, read-out: IC50

Sequence of glucosylceramide synthase (GCS) (Q16739 whole entry): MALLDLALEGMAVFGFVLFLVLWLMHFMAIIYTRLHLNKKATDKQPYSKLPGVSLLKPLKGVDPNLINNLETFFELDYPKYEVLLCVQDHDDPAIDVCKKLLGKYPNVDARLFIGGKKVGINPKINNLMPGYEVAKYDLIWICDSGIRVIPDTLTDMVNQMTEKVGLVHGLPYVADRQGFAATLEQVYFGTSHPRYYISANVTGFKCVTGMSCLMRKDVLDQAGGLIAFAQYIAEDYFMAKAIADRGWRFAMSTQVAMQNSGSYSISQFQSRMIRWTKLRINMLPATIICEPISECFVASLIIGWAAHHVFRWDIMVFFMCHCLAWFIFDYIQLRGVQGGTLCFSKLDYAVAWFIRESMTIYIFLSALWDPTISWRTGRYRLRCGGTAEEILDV

| Compound | pIC50 [1] | pIC50 ([2]; Homo sapiens, Jurkat, 72 h) | Kp at 4 h [3] | concentration at 4 h [3, 4] [ng/g] | concentration at 4 h [3, 5] [ng/mL] | pIC50 [1, 6] | pIC50 ([2]; read-out: IC50) | Mean brain-plasma drug ratio at 4 hr [3] | Mean drug concentrations in brain tissue at 4 hr [3] [ng/g] | Mean drug concentrations in plasma at 4 hr [3] [ng/mL] |
| --- | --- | --- | --- | --- | --- | --- | --- | --- | --- | --- |
| Cc1cc(OC(C)C)ccc1-c1cc2c(cc1F)[C@H](NC(=O)O[C@@H]1CN3CCC1CC3)C(C)(C)C2 [Example 96, (S)-quinuclidin-3-yl((R)-6-fluoro-5-(4-isopropoxy-2-methylphenyl)-2,2-dimethyl-2,3-dihydro-1H-inden-1-yl)carbamate] | 10.10 | 9.12 | 6.24 | 5360 | 864 | – | – | – | – | – |
| CCOc1ccc(-c2cc3c(cc2F)[C@H](NC(=O)O[C@@H]2CN4CCC2CC4)C(C)(C)C3)c(Cl)c1 [Example 104, (S)-quinuclidin-3-yl((R)-5-(2-chloro-4-ethoxyphenyl)-6-fluoro-2,2-dimethyl-2,3-dihydro-1H-inden-1-yl)carbamate] | 10.00 | 8.85 | 3.76 | 5180 | 1380 | – | – | – | – | – |
| CCCOc1c(C)cc(-c2ccc3c(c2)CCC(C)(C)[C@H]3NC(=O)O[C@@H]2CN3CCC2CC3)cc1C [Example 148, (S)-quinuclidin-3-yl((R)-6-(3,5-dimethyl-4-propoxyphenyl)-2,2-dimethyl-1,2,3,4-tetrahydronaphthalen-1-yl)carbamate] | 8.80 | 8.05 | 1.82 | 1680 | 951 | – | – | – | – | – |
| CC(C)Oc1ccc(-c2ccc3c(c2)CCC(C)(C)[C@H]3NC(=O)O[C@@H]2CN3CCC2CC3)cc1Cl [Example 150, (S)-quinuclidin-3-yl((R)-6-(3-chloro-4-isopropoxyphenyl)-2,2-dimethyl-1,2,3,4-tetrahydronaphthalen-1-yl) carbamate] | – | – | – | – | – | 8.90 | 8.49 | 1.471 | 1520.5 | 1065 |
| COc1ccc(-c2ccc3c(c2)CCC(C)(C)[C@H]3NC(=O)O[C@@H]2CN3CCC2CC3)c(F)c1 [Example 151, (S)-quinuclidin-3-yl((R)-6-(2-fluoro-4-methoxyphenyl)-2,2-dimethyl-1,2,3,4-tetrahydronaphthalen-1-yl) carbamate] | – | – | – | – | – | 9.31 | 8.28 | 2.04 | 2441.3 | 1196.4 |
| CCc1cccc(-c2ccc3c(c2)CCC(C)(C)[C@H]3NC(=O)O[C@@H]2CN3CCC2CC3)c1 [Example 158, (S)-quinuclidin-3-yl((R)-6-(3-ethylphenyl)-2,2-dimethyl-1,2,3,4-tetrahydronaphthalen-1-yl)carbamate] | 9.35 | 8.96 | 3.67 | 3720 | 1020 | – | – | – | – | – |
| CC(C)Oc1ccc(-c2ccc3c(c2)CCC(C)(C)[C@H]3NC(=O)O[C@@H]2CN3CCC2CC3)cc1F [Example 161, (S)-quinuclidin-3-yl((R)-6-(3-fluoro-4-isopropoxyphenyl)-2,2-dimethyl-1,2,3,4-tetrahydronaphthalen-1-yl)carbamate] | 8.13 | 8.35 | 3.97 | 4840 | 1240 | – | – | – | – | – |
| CC(C)c1cccc(-c2ccc3c(c2)CCC(C)(C)[C@H]3NC(=O)O[C@@H]2CN3CCC2CC3)c1 [Example 162, (S)-quinuclidin-3-yl((R)-6-(3-isopropylphenyl)-2,2-dimethyl-1,2,3,4-tetrahydronaphthalen-1-yl)carbamate] | 8.12 | 8.85 | 3.71 | 3570 | 967 | – | – | – | – | – |
| CC(C)Oc1cccc(-c2ccc3c(c2)CCC(C)(C)[C@H]3NC(=O)O[C@@H]2CN3CCC2CC3)c1 [Example 165, (S)-quinuclidin-3-yl((R)-6-(3-isopropoxyphenyl)-2,2-dimethyl-1,2,3,4-tetrahydronaphthalen-1-yl)carbamate] | 9.26 | 8.60 | 2.83 | 2400 | 852 | – | – | – | – | – |
